# Measurements: publication PMC4370687, “Functional Characterization of the 1,5-Benzodiazepine Clobazam and Its Major Active Metabolite N-Desmethylclobazam at Human GABAA Receptors Expressed in Xenopus laevis Oocytes” (PLoS ONE, 2015)
# Marks after values point to notes of the source that are not given here.
# Experiments:
# [1] = target: T1, human α1β2γ2S GABAAR (Homo sapiens, UniProt P14867+P18507+P47870); conditions: for Imax ± S.E.M.: % of the response evoked by GABA EC20 (EC20 response = 100%)
# T1 sequence (P18507 40-467 isoform P18507-1 limits assumed, one chain of several): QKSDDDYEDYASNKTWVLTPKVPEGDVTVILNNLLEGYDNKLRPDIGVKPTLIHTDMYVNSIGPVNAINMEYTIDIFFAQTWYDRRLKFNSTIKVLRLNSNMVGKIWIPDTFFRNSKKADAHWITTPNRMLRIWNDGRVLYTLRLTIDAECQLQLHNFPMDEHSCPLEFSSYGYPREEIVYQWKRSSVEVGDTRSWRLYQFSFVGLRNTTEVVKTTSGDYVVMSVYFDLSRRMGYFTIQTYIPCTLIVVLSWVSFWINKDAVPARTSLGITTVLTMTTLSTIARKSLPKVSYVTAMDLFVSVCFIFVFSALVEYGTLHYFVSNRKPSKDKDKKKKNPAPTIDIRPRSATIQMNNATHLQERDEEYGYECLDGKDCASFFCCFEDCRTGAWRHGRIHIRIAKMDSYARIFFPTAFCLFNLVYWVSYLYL
# Experimental: (§5) Electrophysiological recordings were performed using the TEVC technique on Xenopus oocytes expressing various GABAAR combinations using a protocol adapted from previous studies [44, 45]. […] Cells were impaled with agar-plugged 0.5–1 MΩ electrodes containing 3 M KCl and voltage clamped at −70 mV by a Gene Clamp 500B amplifier (Axon Instruments, Union City, CA, USA) and recorded with pClamp 10 (Windows version, Molecular Devices, LLC, Sunnyvale, CA, USA). The oocytes were continuously perfused with Ringer buffer, and the test compounds were applied in the perfusate. Experiments were performed at room temperature and each data point represents the mean ± S.E.M. value of recordings performed on at least two oocytes from at least two different batches of oocytes. The recorded baseline-to-peak current amplitudes were analyzed using Clampfit 10.1 (Axon Instruments, Union City, CA, USA).
# [2] = target: T2, human α2β2γ2S GABAAR (Homo sapiens, UniProt P18507+P47869+P47870); test: Potentiation of GABA EC20-evoked currents, TEVC in Xenopus oocytes; assay type: cell-based; conditions: for Imax ± S.E.M.: % of the response evoked by GABA EC20 (EC20 response = 100%)
# T2 construct: expressed in transfected cells; host or cells: Xenopus laevis oocytes (cRNA injection, α:β2:γ2S 1:1:1; 1:1:5 in the zolpidem comparison)
# T2 sequence (P47869 29-451, one chain of several): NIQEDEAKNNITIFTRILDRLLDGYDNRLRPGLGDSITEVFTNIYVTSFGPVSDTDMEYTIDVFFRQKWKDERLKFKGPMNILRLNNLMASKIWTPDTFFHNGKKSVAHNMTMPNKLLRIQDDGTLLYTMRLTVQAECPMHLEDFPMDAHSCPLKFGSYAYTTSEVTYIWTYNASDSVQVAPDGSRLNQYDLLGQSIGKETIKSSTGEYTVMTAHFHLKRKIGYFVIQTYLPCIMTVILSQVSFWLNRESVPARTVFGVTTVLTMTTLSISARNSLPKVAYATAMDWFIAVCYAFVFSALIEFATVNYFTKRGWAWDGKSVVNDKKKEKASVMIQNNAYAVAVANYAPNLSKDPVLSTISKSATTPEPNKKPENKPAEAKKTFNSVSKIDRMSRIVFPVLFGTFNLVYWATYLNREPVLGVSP
# T2 sequence (P18507 40-467 isoform P18507-1 limits assumed, one chain of several): as the sequence (P18507 40-467 isoform P18507-1 limits assumed, one chain of several) above
# Experimental: (§1) The cDNAs encoding the human GABAAR subunits were linearized with DraIII (α1, α2, α3, α5 and α6), SmaI (β2 and γ2S) or StuI (δ) and used as templates for in vitro cRNA synthesis using the T7 mMESSAGE mMACHINE High Yield Capped RNA Transcription Kit (Life Technologies Corporation, Carlsbad, CA, USA). Except where otherwise indicated, Xenopus oocytes were injected with 36.8 nL cRNA solution encoding for α1β2γ2S, α2β2γ2S, α3β2γ2S and α5β2γ2S GABAARs in a 1:1:1 α:β2:γ2S ratio (2.7 ng/μL of each subunit), with 46 nL cRNA solution encoding for the α6β2δ GABAAR in a 10:1:10 α6:β2:δ ratio (1:0.1:1 μg/μL), with 18 nL cRNA solution encoding for the α1β2 GABAAR in a 1:1 α1:β2 ratio (0.6:0.6 μg/μL), or with 46 nL cRNA encoding for α6β2 (α6:β2 ratio: 1:0.1 μg/μL). Following injection, the oocytes were incubated at 18°C in modified Barth’s solution [88 mM NaCl, 1 mM KCl, 15 mM HEPES (pH 7.5), 2.4 mM NaHCO3, 0.41 mM CaCl2, 0.82 mM MgSO4, 0.3 mM Ca(NO3)2, 100 U/mL penicillin and 100 μg/mL streptomycin]. Electrophysiological recordings were performed 3 to 6 days after injection.
# (§2) Electrophysiological recordings were performed using the TEVC technique on Xenopus oocytes expressing various GABAAR combinations using a protocol adapted from previous studies. […] Cells were impaled with agar-plugged 0.5–1 MΩ electrodes containing 3 M KCl and voltage clamped at −70 mV by a Gene Clamp 500B amplifier (Axon Instruments, Union City, CA, USA) and recorded with pClamp 10 (Windows version, Molecular Devices, LLC, Sunnyvale, CA, USA). The oocytes were continuously perfused with Ringer buffer, and the test compounds were applied in the perfusate. Experiments were performed at room temperature and each data point represents the mean ± S.E.M. value of recordings performed on at least two oocytes from at least two different batches of oocytes. The recorded baseline-to-peak current amplitudes were analyzed using Clampfit 10.1 (Axon Instruments, Union City, CA, USA). […] The presence of δ in cell surface-expressed receptors in α6β2δ-injected oocytes was confirmed on a routinely basis using the δ-GABAAR selective PAM DS2 (1 μM). Furthermore, taking advantage of the differential sensitivity of αβ and αβδ receptors to Zn^2+ as antagonist, 1 μM ZnCl2 was used to verify that a homogenous population of ternary α6β2δ receptor complexes was expressed in these oocytes.
# (§3) Two to five minutes of wash time between each application were permitted to overcome receptor desensitization. […] Concentration-response curves for the benzodiazepines were fitted using Equation 1.
# To address this aspect, we compared the maximum responses mediated by saturating concentrations (3 μM) of clobazam, N-desmethylclobazam, and clonazepam at the GABAARs with the maximal responses mediated by a saturating concentration of diazepam, a 1,4-benzodiazepine often referred to as a “full benzodiazepine agonist”. […] We also compared the maximum degree of potentiation mediated by clobazam at the α2β2γ2S GABAAR with the maximal responses induced by a saturating concentration of zolpidem. […] In this experiment cRNA for α2β2γ2S was injected in a ratio of 1:1:5 (α2:β2:γ2S) to facilitate the expression of a homogenous population of γ2S-containing complexes.
# [3] = test system: rat α3β3γ2L GABAAR; conditions: patch clamp, cited from earlier work; for EC50: 3 μM GABA (EC10–EC20), HEK-293T cells; for Imax: % of the responses evoked by GABA EC10–EC20, HEK-293T cells
# [4] = target: T1, human α1β2γ2S GABAAR; test: cell-based
# Experimental: as §5
# [5] = target: T3, human α6β2 GABAAR (Homo sapiens, UniProt P47870+Q16445); test: Potentiation of GABA EC20-evoked currents, TEVC in Xenopus oocytes; assay type: cell-based
# T3 construct: expressed in transfected cells; host or cells: Xenopus laevis oocytes (cRNA injection)
# T3 sequence (Q16445 20-453, one chain of several): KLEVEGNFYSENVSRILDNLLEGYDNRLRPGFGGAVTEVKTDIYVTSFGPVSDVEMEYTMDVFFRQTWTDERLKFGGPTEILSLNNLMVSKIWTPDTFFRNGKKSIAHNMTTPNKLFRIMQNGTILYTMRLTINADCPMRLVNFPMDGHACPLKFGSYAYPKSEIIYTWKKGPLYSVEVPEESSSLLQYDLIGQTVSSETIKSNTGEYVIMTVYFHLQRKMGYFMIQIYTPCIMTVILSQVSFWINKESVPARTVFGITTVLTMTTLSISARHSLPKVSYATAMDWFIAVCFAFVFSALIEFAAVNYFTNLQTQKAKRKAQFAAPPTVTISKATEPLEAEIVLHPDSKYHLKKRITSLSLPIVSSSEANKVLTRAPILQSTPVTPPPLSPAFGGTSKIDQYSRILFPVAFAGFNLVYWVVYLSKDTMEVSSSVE
# Experimental: as §1, §2, §3
# [6] = target: T4, human α5β2γ2S GABAAR (Homo sapiens, UniProt P18507+P31644+P47870); test: as above; assay type: cell-based; conditions: for Imax ± S.E.M.: % of the response evoked by GABA EC20 (EC20 response = 100%)
# T4 construct: expressed in transfected cells; host or cells: Xenopus laevis oocytes (cRNA injection, 1:1:1)
# T4 sequence (P31644 32-462, one chain of several): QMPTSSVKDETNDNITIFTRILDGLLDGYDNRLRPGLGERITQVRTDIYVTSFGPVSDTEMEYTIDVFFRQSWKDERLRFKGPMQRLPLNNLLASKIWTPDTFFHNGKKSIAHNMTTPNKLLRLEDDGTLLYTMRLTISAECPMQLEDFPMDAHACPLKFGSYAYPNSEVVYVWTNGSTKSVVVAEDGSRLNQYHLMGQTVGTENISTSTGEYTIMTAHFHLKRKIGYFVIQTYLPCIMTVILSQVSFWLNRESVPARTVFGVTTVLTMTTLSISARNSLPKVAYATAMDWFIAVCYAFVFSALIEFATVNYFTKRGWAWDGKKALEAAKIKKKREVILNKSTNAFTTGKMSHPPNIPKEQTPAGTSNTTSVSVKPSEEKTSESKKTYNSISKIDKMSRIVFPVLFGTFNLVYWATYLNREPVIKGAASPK
# T4 sequence (P18507 40-467 isoform P18507-1 limits assumed, one chain of several): as the sequence (P18507 40-467 isoform P18507-1 limits assumed, one chain of several) above
# Experimental: as §1, §2, §3
# [7] = target: T5, human α3β2γ2S GABAAR (Homo sapiens, UniProt P18507+P34903+P47870); test: as above; assay type: cell-based; conditions: for Imax ± S.E.M.: % of the response evoked by GABA EC20 (EC20 response = 100%)
# T5 construct: expressed in transfected cells; host or cells: Xenopus laevis oocytes (cRNA injection, 1:1:1)
# T5 sequence (P34903 29-492, one chain of several): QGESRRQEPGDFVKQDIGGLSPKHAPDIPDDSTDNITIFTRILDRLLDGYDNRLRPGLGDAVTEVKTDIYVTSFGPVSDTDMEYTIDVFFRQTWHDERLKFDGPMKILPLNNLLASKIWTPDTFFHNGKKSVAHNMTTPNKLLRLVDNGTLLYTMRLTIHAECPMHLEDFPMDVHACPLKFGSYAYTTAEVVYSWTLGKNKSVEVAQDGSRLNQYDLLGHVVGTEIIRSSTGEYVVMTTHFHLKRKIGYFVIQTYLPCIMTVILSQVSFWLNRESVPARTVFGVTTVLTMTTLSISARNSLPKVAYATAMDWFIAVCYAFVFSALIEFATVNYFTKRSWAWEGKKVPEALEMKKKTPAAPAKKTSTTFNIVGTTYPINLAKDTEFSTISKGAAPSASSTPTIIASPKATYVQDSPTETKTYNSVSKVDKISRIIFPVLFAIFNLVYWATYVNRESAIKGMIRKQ
# T5 sequence (P18507 40-467 isoform P18507-1 limits assumed, one chain of several): as the sequence (P18507 40-467 isoform P18507-1 limits assumed, one chain of several) above
# Experimental: as §1, §2, §3
# [8] = target: T6, human α6β2δ GABAAR (Homo sapiens, UniProt P47870+Q16445); test: as above; assay type: cell-based; conditions: for EC50: co-applied with GABA EC20, N-desmethylclobazam value estimated, curve not saturated at 1 mM; for Imax ± S.E.M.: % of the response evoked by GABA EC20 (EC20 response = 100%)
# T6 construct: expressed in transfected cells; host or cells: Xenopus laevis oocytes (cRNA injection, α6:β2:δ 10:1:10)
# T6 sequence (Q16445 20-453, one chain of several): as the sequence (Q16445 20-453, one chain of several) above
# T6 sequence (O14764 25-452 partner, one chain of several): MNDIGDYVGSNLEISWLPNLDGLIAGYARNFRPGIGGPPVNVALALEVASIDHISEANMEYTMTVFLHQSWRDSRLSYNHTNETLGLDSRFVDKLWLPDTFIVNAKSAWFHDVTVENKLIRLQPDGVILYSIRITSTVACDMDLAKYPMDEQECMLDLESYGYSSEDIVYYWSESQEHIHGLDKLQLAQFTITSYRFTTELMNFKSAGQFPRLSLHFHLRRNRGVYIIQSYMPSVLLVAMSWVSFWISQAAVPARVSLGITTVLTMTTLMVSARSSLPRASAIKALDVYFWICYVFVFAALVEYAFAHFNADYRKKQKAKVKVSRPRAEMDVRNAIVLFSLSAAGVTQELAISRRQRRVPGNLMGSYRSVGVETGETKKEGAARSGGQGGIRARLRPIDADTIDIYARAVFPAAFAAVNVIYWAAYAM
# Experimental: as §1, §2, §3
# [9] = test system: human α1,2,3,5β2γ2S GABAARs; conditions: cited from earlier work
# [10] = humans; cited from earlier work
# [11] = test system: α1β2γ1 receptors; conditions: Xenopus oocytes; cited from earlier work
# [12] = target: T1, human α1β2γ2S GABAAR; test: Zinc-mediated inhibition of GABA EC80-evoked currents, TEVC in Xenopus oocytes; assay type: cell-based; parameters: expressed in transfected cells; host or cells: Xenopus laevis oocytes (cRNA injection, α:β2:γ2S 1:1:1); conditions: 100 μM Zn2+, 100 μM GABA (EC80), mean ± S.E.M.
# Experimental: as §1, with “Following injection, the oocytes were incubated at 18°C in modified Barth’s solution [88 mM NaCl, 1 mM KCl, 15 mM HEPES (pH 7.5), 2.4 mM NaHCO3, 0.41 mM CaCl2, 0.82 mM MgSO4, 0.3 mM Ca(NO3)2, 100 U/mL penicillin and 100 μg/mL streptomycin]. Electrophysiological recordings were performed 3 to 6 days after injection.” left out
# (§4) Electrophysiological recordings were performed using the TEVC technique on Xenopus oocytes expressing various GABAAR combinations using a protocol adapted from previous studies. […] Cells were impaled with agar-plugged 0.5–1 MΩ electrodes containing 3 M KCl and voltage clamped at −70 mV by a Gene Clamp 500B amplifier (Axon Instruments, Union City, CA, USA) and recorded with pClamp 10 (Windows version, Molecular Devices, LLC, Sunnyvale, CA, USA). […] The recorded baseline-to-peak current amplitudes were analyzed using Clampfit 10.1 (Axon Instruments, Union City, CA, USA). […]
# [13] = target: T7, human α1β2 GABAAR (Homo sapiens, UniProt P14867+P47870); test: as above; assay type: cell-based; conditions: 100 μM Zn2+, 10 μM GABA (EC80), mean ± S.E.M.
# T7 construct: expressed in transfected cells; host or cells: Xenopus laevis oocytes (cRNA injection, α1:β2 1:1)
# T7 sequence (P14867 28-456): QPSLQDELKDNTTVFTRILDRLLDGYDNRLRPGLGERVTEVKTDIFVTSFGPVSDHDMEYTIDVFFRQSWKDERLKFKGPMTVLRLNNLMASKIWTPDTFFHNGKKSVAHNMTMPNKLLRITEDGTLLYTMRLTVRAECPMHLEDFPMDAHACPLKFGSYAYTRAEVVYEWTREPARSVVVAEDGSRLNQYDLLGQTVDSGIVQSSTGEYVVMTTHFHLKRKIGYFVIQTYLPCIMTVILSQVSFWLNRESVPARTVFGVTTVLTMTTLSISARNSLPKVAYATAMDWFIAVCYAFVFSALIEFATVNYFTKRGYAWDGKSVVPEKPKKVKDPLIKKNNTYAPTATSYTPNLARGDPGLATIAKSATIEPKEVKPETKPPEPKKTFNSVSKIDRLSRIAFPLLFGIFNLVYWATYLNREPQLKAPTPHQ
# T7 sequence (P47870 26-474 isoform P47870-1 limits assumed): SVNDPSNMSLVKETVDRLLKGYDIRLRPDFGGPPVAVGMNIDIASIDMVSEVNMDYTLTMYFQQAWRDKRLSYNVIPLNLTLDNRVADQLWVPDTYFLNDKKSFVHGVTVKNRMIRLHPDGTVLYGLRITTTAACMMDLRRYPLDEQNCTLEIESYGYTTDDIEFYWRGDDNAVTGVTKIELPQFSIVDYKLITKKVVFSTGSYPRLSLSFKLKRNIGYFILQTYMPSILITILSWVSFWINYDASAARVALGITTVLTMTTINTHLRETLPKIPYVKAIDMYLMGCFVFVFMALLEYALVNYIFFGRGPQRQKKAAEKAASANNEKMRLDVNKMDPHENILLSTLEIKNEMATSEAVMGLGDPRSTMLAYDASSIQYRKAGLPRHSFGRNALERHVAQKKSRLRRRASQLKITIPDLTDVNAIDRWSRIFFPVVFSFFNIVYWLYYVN
# Experimental: as §1, with “Following injection, the oocytes were incubated at 18°C in modified Barth’s solution [88 mM NaCl, 1 mM KCl, 15 mM HEPES (pH 7.5), 2.4 mM NaHCO3, 0.41 mM CaCl2, 0.82 mM MgSO4, 0.3 mM Ca(NO3)2, 100 U/mL penicillin and 100 μg/mL streptomycin]. Electrophysiological recordings were performed 3 to 6 days after injection.” left out
# as §4
# [14] = 1 mM compound, in % of the GABA EC20 response, curve not saturated
SMILES,Imax ± S.E.M. [1] [%],EC50 [2] [nM],Imax ± S.E.M. [2] [%],EC50 [3] [nM],Imax [3] [%],EC50 [4] [nM],EC50 [6] [nM],Imax ± S.E.M. [6],EC50 [7] [nM],Imax ± S.E.M. [7],"EC50 ([8]; EC50, PAM) [nM]",fold higher binding affinity at α2β2γ2S compared to α1β2γ2S [9] [fold],plasma half-life [10] [h],Imax ± S.E.M. [8] [%],other results
O=C1CC(=O)N(c2ccccc2)c2cc(Cl)ccc2N1 [N-desmethylclobazam],203 ± 8.5,138,270 ± 20,550,270,151,98,233 (248 and 217) ^b %,282,270 ± 27%,~300000,4.3,79,,"EC50 [5]: ~300000 nM; current evoked by 1 mM (given instead of Imax) [5, 14]: 2350 ± 200 ^a %; fold potentiation of the GABA EC20-evoked response ([8]; 1 mM compound, curve not saturated): ~24 fold; current evoked by 1 mM (given instead of Imax) [8, 14]: 2420 ± 210 ^a %"
Cc1ccc(-c2nc3ccc(C)cn3c2CC(=O)N(C)C)cc1 [zolpidem],,,,,,,,,,,,,,,fold potentiation of GABA EC20-evoked currents ([2]; saturating concentration (3 μM)): 2.7 fold
O=C1CN=C(c2ccccc2Cl)c2cc([N+](=O)[O-])ccc2N1 [clonazepam],209 ± 14,7.4,253 ± 17,90,263,15.5,20.9,255 ± 25%,16,316 (334 and 297) ^b %,29000,,,283 ± 38,"fold more potent than N-desmethylclobazam as a PAM ([1]; EC50 ratio): 10 fold; fold more potent than clobazam as a PAM ([1]; EC50 ratio): 9 fold; fold more potent than N-desmethylclobazam as a PAM ([2]; EC50 ratio): 19 fold; fold more potent than clobazam as a PAM ([2]; EC50 ratio): 19 fold; fold more potent than N-desmethylclobazam as a PAM ([6]; EC50 ratio): 5 fold; fold more potent than clobazam as a PAM ([6]; EC50 ratio): 8 fold; fold more potent than N-desmethylclobazam as a PAM ([7]; EC50 ratio): 18 fold; fold more potent than clobazam as a PAM ([7]; EC50 ratio): 15 fold; EC50 ([8]; pEC50 ± S.E.M., PAM): 29500 nM"
CN1C(=O)CC(=O)N(c2ccccc2)c2cc(Cl)ccc21 [clobazam],256 ± 12,138,261 ± 6.7,490,487,132,174,216 ± 7.0%,240,269 ± 0.8%,55000,2.5,36,528 ± 46,potentiation of GABA EC5-EC10-evoked responses [11]: negligible potentiation
CN1C(=O)CN=C(c2ccccc2)c2cc(Cl)ccc21 [diazepam],,,,,508,,,,,,,,,,
"[Cl-].[Cl-].[Zn+2] [Zn^2+, ZnCl2]",,,,,,,,,,,,,,,degree of inhibition of GABA EC80-evoked currents [12]: 4.7 ± 4.6%; degree of inhibition of GABA EC80-evoked currents [13]: 77 ± 6.3%
